# Results as given in publication PMC11892739, “Site-specific molecular glues for the 14-3-3/Tau pS214 protein–protein interaction via reversible covalent imine tethering” (RSC Medicinal Chemistry, 2025).
# Square brackets hold non-standard residues; d marks the D form. Peptide text beside a SMILES is read from it. pS = N[C@@H](COP(=O)(O)O)C(=O)O
# Assays:
# 14-3-3ζ = target: 14-3-3ζ; parameters: method as in doi:10.1101/2024.03.15.585148; conditions: FA assay; read-out: KD of monovalent Tau peptide to 14-3-3ζ; cited from earlier work
# [1] = target: T1, 14-3-3ζ/Tau pS2 peptide interaction (Homo sapiens, UniProt P63104); assay: Fluorescence anisotropy 14-3-3ζ titration in the presence of 250 μM compound and Tau pS2 peptide; type: binding; conditions: for SF250μM (stabilization factor): 250 μM compound, apparent KD compared to internal DMSO reference
# T1 construct: made in house; host or cells: NiCo21 (DE3) E. coli
# T1 sequence (P63104 1-245): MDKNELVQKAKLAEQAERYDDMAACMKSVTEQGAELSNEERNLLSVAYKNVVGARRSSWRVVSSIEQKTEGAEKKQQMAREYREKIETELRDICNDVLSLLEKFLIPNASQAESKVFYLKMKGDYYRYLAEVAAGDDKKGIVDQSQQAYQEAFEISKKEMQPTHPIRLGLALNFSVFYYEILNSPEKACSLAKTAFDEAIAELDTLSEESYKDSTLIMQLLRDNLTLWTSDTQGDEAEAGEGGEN
# Protocol: On the other hand, the PPI stabilizing potency of series 1 compounds was highly dependent on the position and chemical property of the substituent. […] The compound screen for these compounds was further complemented by 14-3-3ζ titration assays in the presence of a constant concentration of compound (250 μM) and Tau pS2 peptide (10 nM) (Fig. 3c, ESI ^† Fig. S6).
# This statement is strengthened by the diminished stabilizing activity when shifting the more polar chloro substituent from the para (14) to the ortho (5) to the meta position (8), respectively. […]
# chromatography (HisTrap high performance cartridges, Cytiva). Typically two 5 mL columns were used for a 2 L culture in which the lysate was loaded on the column, washed with 10 CV wash buffer (50 mM Hepes, pH 8.0, 300 mM NaCl, 25 mM imidazole, 2 mM βME), and eluted with several fractions (2-4 CV) of elution buffer (50 mM Hepes, pH 8.0, 300 mM NaCl, 250 mM imidazole, 2 mM βME). Fractions containing the 14-3-3 protein were combined and dialyzed into 25 mM HEPES pH 8.0, 200 mM NaCl, 10 mM MgCl2, 2 mM βME, followed by dialysis into 25 mM HEPES, 100 mM NaCl, 10 mM MgCl2, 500 μM TCEP (adjusted to pH 8.0). Dialyzed protein was concentrated to ∼40 mg/mL, analyzed by Q -Tof LC/MS, and aliquots were flash -frozen for storage at −80 °C. For 14 -3-3σ∆c, 1 mg TEV per 100 mg purified protein was added to the dialysis to remove the purification tag. The cleaved sample was then again loaded on a 10 mL Ni-NTA column to separate the cleaved product from the expression tag and residual uncleaved protein. The flowthrough was loade d on a Superdex 75 pg 16/60 size exclusion column (GE Life Sciences) using 25 mM HEPES, 100 mM NaCl, 10 mM MgCl2, 500 μM TCEP (adjusted to pH = 8.0) as running buffer. Fractions containing the 14 -3-3 protein were pooled and concentrated to ∼60 mg/mL, analyzed Q -Tof LC/MS, and aliquots were flash -frozen for storage at −80°C.
# (§1) Fluorescence Anisotropy – compound titration
# (§2) Compound titration assays were performed by titrating compounds (in 1% DMSO, starting at 500 μM) in a 2-fold dilution series to preformed complex of fluorescein -labeled Tau pS2 (10 nM) and 14 -3-3ζ (100 nM) (which represents approximately 20% bound Tau pS2 peptide to 14 -3-3ζ to allow further complex formation by addition of fragments 1) in FA buffer (10 mM HEPES pH 7.4, 150 mM NaCl, 50 µM TCEP, 0.1% (v/v) Tween20, 0.1% (w/v) BSA). Dilution series were made in polystyrene low -volume 384 -well plates (Corning #4514, Black Round Bottom). Measurements were performed directly after plate preparation, using a Tecan SPARK plate reader at room temperature ( λex: 485±20 nm; λem: 535±25 nm; mirror: automatic; flashes: 30; settle time: 1 ms; gain: optimal; Z -position: calculated from well). Wells containing only fluorescein labelled peptide were used to set as G -factor calibrated from these wells. All data were analyzed using GraphPad Prism (10.0.1) and fitted with a four -parameter logistic model (4PL) to determine binding affinities (dissociation constant, KD). All data shown is background corrected for the signal without 14 -3-3ζ and the mean and standard deviation of technical duplicate is plotted, assay performed in a scientific duplicate for hit compounds.
# Fluorescence Anisotropy – 14-3-3 titrations in the presence of compound To characterize the affinity of the Tau peptides for 14-3-3 in the presence of compound, 14-3-3ζ or γ was titrated in a 2-fold dilution series starting at 400 (for the 14-3-3ζ titrations to Tau pS2) or 800 (for the 14-3-3γ titrations to Tau pS214 or pS324) µM. 14-3-3 was added to 10 nM of fluorescein-labeled peptide (Tau pS2, Tau pS214 or Tau pS324) in the presence of 250 µM compound (1% DMSO). The assays were performed in a similar way as described above. Data shown is the average and standard deviation of a technical duplicate, top plateau corrected where needed, assay performed in a scientific duplicate.
# Fluorescence Anisotropy – peptide screen […]
# [2] = target: T1, 14-3-3ζ/Tau pS2 peptide interaction; assay: Fluorescence anisotropy compound titration to preformed 14-3-3ζ/Tau pS2 peptide complex; type: binding; conditions: FA
# Protocol: With the compound library constructed, we sought to screen the stabilizing activity of the imidazole analogs for the 14-3-3ζ/Tau pS2 peptide interaction. In this regard, a fluorescence anisotropy (FA) assay was performed where each individual compound was titrated against a fixed concentration of 14-3-3ζ (100 nM) and fluorescein-labelled Tau pS2 peptide (10 nM; Fig. 3a and b, ESI ^† Fig. S4 and S5, Table 1, ESI ^† Table S1). Thereby, the fixed 14-3-3ζ concentration was based on the EC20 value of the binary complex formation to enable a sufficient dynamic window for ternary complex formation. […] For each compound dose–response curve, the background signal (titration without 14-3-3ζ) was subtracted, to exclude possible false positive results. […]
# chromatography (HisTrap high performance cartridges, Cytiva). […] Dialyzed protein was concentrated to ∼40 mg/mL, analyzed by Q -Tof LC/MS, and aliquots were flash -frozen for storage at −80 °C. […] Fractions containing the 14 -3-3 protein were pooled and concentrated to ∼60 mg/mL, analyzed Q -Tof LC/MS, and aliquots were flash -frozen for storage at −80°C.
# as §1
# as §2, with “Dilution series were made in polystyrene low -volume 384 -well plates (Corning #4514, Black Round Bottom).” left out, “Wells containing only fluorescein labelled peptide were used to set as G -factor calibrated from these wells.” left out, “All data shown is background corrected for the signal without 14 -3-3ζ and the mean and standard deviation of technical duplicate is plotted, assay performed in a scientific duplicate for hit compounds.” left out
SF250μM (stabilization factor) [1],Compound,also measured
4.3,O=Cc1ccc(-n2ccnc2-c2cccc3cccnc23)cc1Br [Compound 33],–
8.3,COc1ccc(-c2nc3ccccc3n2-c2ccc(C=O)c(Br)c2)cc1 [Compound 29],–
1.8,O=Cc1ccc(-n2ccnc2-c2ccccc2)cc1I [Compound 26],–
11,Cc1ccccc1-c1nccn1-c1ccc(C=O)c(Br)c1 [Compound 3],–
20,O=Cc1ccc(-n2c(-c3cccnc3)nc3ccccc32)cc1Br [Compound 2],stabilization of the 14-3-3ζ/Tau pS2 peptide complex ([1]; screening hits): 20 fold
6.1,O=Cc1ccc(-n2ccnc2-c2ccccc2)cc1C(F)(F)F [Compound 27],–

# More lines, now with the values behind:
Compound,SF250μM (stabilization factor) [1],also measured
CC(=O)N[C@@H](CO)C(=O)N[C@@H](CCCNC(=N)N)C(=O)N[C@H](C(=O)N1CCC[C@H]1C(=O)N[C@@H](COP(=O)(O)O)C(=O)N[C@@H](CC(C)C)C(=O)N1CCC[C@H]1C(=O)N[C@H](C(=O)N1CCC[C@H]1C(=O)N1CCC[C@H]1C(=O)N[C@H](C(=O)N[C@@H](CCCNC(=N)N)C(=O)N[C@@H](CCC(=O)O)C(=O)O)[C@@H](C)O)[C@@H](C)O)[C@@H](C)O [Tau pS214] (Ac-SRTP[pS]LPTPPTRE-OH; C-terminus assumed),–,Kd (14-3-3ζ): > 100 µM
O=Cc1ccc(-n2ccnc2-c2cccc(O)c2)cc1Br [Compound 9],–,PPI stabilizing activity (in words) [2]: slightly inhibited 14-3-3ζ/Tau pS2 peptide complex formation
O=Cc1ccc(-n2c(-c3ccc(OCCO)cc3)nc3ccccc32)cc1Br [Compound 31],19,–
O=Cc1ccc(-n2ccnc2-c2ccccc2Cl)cc1Br [Compound 5],7.5,–
O=Cc1ccc(-n2ccnc2-c2ccc(OCCO)cc2)cc1Br [Compound 24],–,PPI stabilizing activity (in words) [2]: did not show an improvement in PPI stabilization
CC[C@H](C)[C@H](NC(=O)[C@H](CC(N)=O)NC(=O)CNC(=O)[C@H](CC(C)C)NC(=O)[C@H](COP(=O)(O)O)NC(=O)CNC(=O)[C@H](CS)NC(=O)[C@H](CCCCN)NC(=O)[C@H](CO)NC(=O)[C@@H](NC(=O)[C@@H](NC(C)=O)C(C)C)[C@@H](C)O)C(=O)N[C@@H](Cc1c[nH]cn1)C(=O)N[C@@H](Cc1c[nH]cn1)C(=O)N[C@@H](CCCCN)C(=O)O [Tau pS324] (Ac-VTSKCG[pS]LGNIHHK-OH; C-terminus assumed),–,Kd (14-3-3ζ): > 100 µM
O=Cc1ccc(-n2ccnc2-c2ccc(N3CCOCC3)cc2)cc1Br [Compound 23],16,–
O=Cc1ccc(-n2ccnc2-c2ccccc2)cc1Cl [Compound 25],15,–
CC(C)c1ccc(-c2nccn2-c2ccc(C=O)c(Br)c2)cc1 [Compound 19],–,PPI stabilizing activity (in words) [2]: completely diminished PPI stabilization
